Reference: US20160060260A1, “BROMODOMAIN INHIBITORS FOR TREATING DISEASE” (Board of Regents, The University of Texas System, priority 2014, published 2016)

These compounds were tested against T1, Recombinant human His-tagged Trim24-PHD-bromodomain (Homo sapiens, UniProt O15164) (assay: Trim24 AlphaScreen Assay). Conditions: 5 nM Trim24 protein, 15 nM biotinylated H3K23ac (1-33aa) peptide.
T1 construct: Recombinant human His-tagged Trim24-PHD-bromodomain (produced in-house); made in house
T1 sequence (O15164 824-1006 limits assumed): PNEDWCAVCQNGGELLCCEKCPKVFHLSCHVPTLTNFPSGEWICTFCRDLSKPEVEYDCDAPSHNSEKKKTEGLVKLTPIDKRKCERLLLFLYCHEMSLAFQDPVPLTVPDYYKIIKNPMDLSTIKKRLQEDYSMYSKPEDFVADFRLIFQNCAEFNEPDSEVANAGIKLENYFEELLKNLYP
Format: binding
Experimental: Recombinant human His-tagged Trim24-PHD-bromodomain (produced in-house), biotinylated H3K23ac (1-33aa) peptide (AnaSpec, Inc.), and test compound were added to a 384-well OptiPlate (Perkin Elmer) and incubated at room temperature for one hour. The assay buffer consisted of 50 mM Hepes, pH 7.5, 100 mM NaCl, and 0.12 mM Triton X-100.
Streptavidin donor beads and nickel chelate acceptor beads, both from a Perkin Elmer AlphaScreen Histidine Detection Kit, were then added to the Optiplate to a final concentration of 10 ug/mL each. Following a 2 hour incubation at room temperature, the microplate was read on an Envision Plate Reader (Perkin Elmer). Percent of control (POC) values were calculated from the following formula:
POC=[sample signal-average background signal]/[average maximum signal−average background signal]*100
The average maximum signal was obtained from wells containing all assay components except test compound. The average background signal pertained to wells with all assay components except Trim24 and test compound. IC50 values were calculated using a four-parameter logistic curve fit.

Row | Compound | IC50
1 | COc1ccc(S(=O)(=O)Nc2cc3c(cc2Oc2cccc(OCc4ccccc4)c2)n(C)c(=O)n3C)cc1OC [Example 1, N-(6-(3-(benzyloxy)phenoxy)-1,3-dimethyl-2-oxo-2,3-dihydro-1H-benzo[d]imidazol-5-yl)-3,4-dimethoxybenzenesulfonamide] | 100 to 1000 nM
2 | Cc1n[nH]c(C)c1S(=O)(=O)Nc1cc2c(cc1Oc1cccc(OCc3ccccc3)c1)n(C)c(=O)n2C [Example 2, N-(6-(3-(benzyloxy)phenoxy)-1,3-dimethyl-2-oxo-2,3-dihydro-1H-benzo[d]imidazol-5-yl)-3,5-dimethyl-1H-pyrazole-4-sulfonamide] | 100 to 1000 nM
3 | Cn1cnc(S(=O)(=O)Nc2cc3c(cc2Oc2cccc(OCc4ccc(Cl)nc4)c2)n(C)c(=O)n3C)c1 [Example 3, N-(6-(3-((6-chloropyridin-3-yl)methoxy)phenoxy)-1,3-dimethyl-2-oxo-2,3-dihydro-1H-benzo[d]imidazol-5-yl)-1-methyl-1H-imidazole-4-sulfonamide] | > 1000 nM
4 | Cc1nc(S(=O)(=O)Nc2cc3c(cc2Oc2cccc(OCCC(C)C)c2)n(C)c(=O)n3C)cn1C [Example 4, N-(6-(3-(isopentyloxy)phenoxy)-1,3-dimethyl-2-oxo-2,3-dihydro-1H-benzo[d]imidazol-5-yl)-1,2-dimethyl-1H-imidazole-4-sulfonamide] | 100 to 1000 nM
5 | Cn1cnc(S(=O)(=O)Nc2cc3c(cc2Oc2cccc(OCCCCN)c2)n(C)c(=O)n3C)c1 [Example 5, N-(6-(3-(4-aminobutoxy)phenoxy)-1,3-dimethyl-2-oxo-2,3-dihydro-1H-benzo[d]imidazol-5-yl)-1-methyl-1H-imidazole-4-sulfonamide] | 100 to 1000 nM
6 | CCOc1cccc(Oc2cc3c(cc2NS(=O)(=O)c2cn(C)c(C)n2)n(C)c(=O)n3C)c1 [Example 6, N-(6-(3-ethoxyphenoxy)-1,3-dimethyl-2-oxo-2,3-dihydro-1H-benzo[d]imidazol-5-yl)-1,2-dimethyl-1H-imidazole-4-sulfonamide] | 100 to 1000 nM
7 | CCCOc1cc(OCCCCCCN)cc(Oc2cc3c(cc2NS(=O)(=O)c2ccc(OC)c(OC)c2)n(C)c(=O)n3C)c1 [Example 7, N-(6-{3-[(6-aminohexyl)oxy]-5-propoxyphenoxy}-1,3-dimethyl-2-oxo-2,3-dihydro-1H-1,3-benzodiazol-5-yl)-3,4-dimethoxybenzene-1-sulfonamide] | 10 to 100 nM
8 | CN(C)CCCCOc1cccc(Oc2cc3c(cc2NS(=O)(=O)c2cn(C)cn2)n(C)c(=O)n3C)c1 [Example 9, N-(6-(3-(4-(dimethylamino)butoxy)phenoxy)-1,3-dimethyl-2-oxo-2,3-dihydro-1H-benzo[d]imidazol-5-yl)-1-methyl-1H-imidazole-4-sulfonamide 2,2,2-trifluoroacetate] | > 1000 nM
9 | Cn1c(=O)n(C)c2cc(Oc3cccc(OCc4ccccc4)c3)c(NS(C)(=O)=O)cc21 [Example 11] | > 1000 nM
10 | Cn1c(=O)n(C)c2cc(Oc3cccc(OCc4ccccc4)c3)c(NS(=O)(=O)C3CC3)cc21 [Example 12, N-(6-(3-(benzyloxy)phenoxy)-1,3-dimethyl-2-oxo-2,3-dihydro-1H-benzo[d]imidazol-5-yl)cyclopropanesulfonamide] | > 1000 nM
11 | Cn1c(=O)n(C)c2cc(Oc3cccc(OCc4ccccc4)c3)c(NS(=O)(=O)c3ccccc3)cc21 [Example 13, N-(6-(3-(benzyloxy)phenoxy)-1,3-dimethyl-2-oxo-2,3-dihydro-1H-benzo[d]imidazol-5-yl)benzenesulfonamide] | > 1000 nM
12 | Cn1c(=O)n(C)c2cc(Oc3cccc(OCc4ccccc4)c3)c(NS(=O)(=O)c3cccnc3)cc21 [Example 14, N-(6-(3-(benzyloxy)phenoxy)-1,3-dimethyl-2-oxo-2,3-dihydro-1H-benzo[d]imidazol-5-yl)pyridine-3-sulfonamide] | 100 to 1000 nM
13 | Cn1c(=O)n(C)c2cc(Oc3cccc(OCc4ccccc4)c3)c(NS(=O)(=O)c3ccc(F)cc3)cc21 [Example 15] | > 1000 nM
14 | CC(C)COc1ccc(S(=O)(=O)Nc2cc3c(cc2Oc2cccc(OCc4ccccc4)c2)n(C)c(=O)n3C)cc1 [Example 16, N-(6-(3-(benzyloxy)phenoxy)-1,3-dimethyl-2-oxo-2,3-dihydro-1H-benzo[d]imidazol-5-yl)-4-isobutoxybenzenesulfonamide] | > 1000 nM

Continued, values first:

Row | IC50 | Compound
15 | 100 to 1000 nM | COc1ccc(S(=O)(=O)Nc2cc3c(cc2Oc2cccc(OCc4ccccc4)c2)n(C)c(=O)n3C)cc1 [Example 17, N-(6-(3-(benzyloxy)phenoxy)-1,3-dimethyl-2-oxo-2,3-dihydro-1H-benzo[d]imidazol-5-yl)-4-methoxybenzenesulfonamide]
16 | 100 to 1000 nM | COc1cccc(S(=O)(=O)Nc2cc3c(cc2Oc2cccc(OCc4ccccc4)c2)n(C)c(=O)n3C)c1 [Example 18, N-(6-(3-(benzyloxy)phenoxy)-1,3-dimethyl-2-oxo-2,3-ddihydro-1H-benzo[d]imidazol-5-yl)-3-methoxybenzenesulfonamide]
17 | > 1000 nM | COc1ccc(S(=O)(=O)Nc2cc3c(cc2Oc2cccc(OCc4ccc(Cl)nc4)c2)n(C)c(=O)n3C)cc1OC [Example 20, N-(6-(3-((6-chloropyridin-3-yl)methoxy)phenoxy)-1,3-dimethyl-2-oxo-2,3-dihydro-1H-benzo[d]imidazol-5-yl)-3,4-dimethoxybenzenesulfonamide]
18 | > 1000 nM | Cn1c(=O)n(C)c2cc(Oc3cccc(OCc4ccccc4)c3)c(NS(=O)(=O)c3ccsc3)cc21 [Example 21, N-(6-(3-(benzyloxy)phenoxy)-1,3-dimethyl-2-oxo-2,3-dihydro-1H-benzo[d]imidazol-5-yl)thiophene-3-sulfonamide]
19 | 100 to 1000 nM | Cn1c(=O)n(C)c2cc(Oc3cccc(OCc4ccccc4)c3)c(NS(=O)(=O)c3nnc[nH]3)cc21 [Example 22, N-(6-(3-(benzyloxy)phenoxy)-1,3-dimethyl-2-oxo-2,3-dihydro-1H-benzo[d]imidazol-5-yl)-4H-1,2,4-triazole-3-sulfonamide]
20 | 100 to 1000 nM | Cc1nn(C)cc1S(=O)(=O)Nc1cc2c(cc1Oc1cccc(OCc3ccccc3)c1)n(C)c(=O)n2C [Example 23, N-(6-(3-(benzyloxy)phenoxy)-1,3-dimethyl-2-oxo-2,3-dihydro-1H-benzo[d]imidazol-5-yl)-1,3-dimethyl-1H-pyrazole-4-sulfonamide]
21 | > 1000 nM | Cc1ccsc1S(=O)(=O)Nc1cc2c(cc1Oc1cccc(OCc3ccccc3)c1)n(C)c(=O)n2C [Example 24, N-(6-(3-(benzyloxy)phenoxy)-1,3-dimethyl-2-oxo-2,3-dihydro-1H-benzo[d]imidazol-5-yl)-3-methylthiophene-2-sulfonamide]
22 | 100 to 1000 nM | Cn1cc(S(=O)(=O)Nc2cc3c(cc2Oc2cccc(OCc4ccccc4)c2)n(C)c(=O)n3C)cn1 [Example 25, N-(6-(3-(benzyloxy)phenoxy)-1,3-dimethyl-2-oxo-2,3-dihydro-1H-benzo[d]imidazol-5-yl)-1-methyl-1H-pyrazole-4-sulfonamide]
23 | 100 to 1000 nM | Cc1nc(S(=O)(=O)Nc2cc3c(cc2Oc2cccc(OCc4ccccc4)c2)n(C)c(=O)n3C)cn1C [Example 26, N-(6-(3-(benzyloxy)phenoxy)-1,3-dimethyl-2-oxo-2,3-dihydro-1H-benzo[d]imidazol-5-yl)-1,2-dimethyl-1H-imidazole-4-sulfonamide]
24 | > 1000 nM | COCCS(=O)(=O)Nc1cc2c(cc1Oc1cccc(OCc3ccccc3)c1)n(C)c(=O)n2C [Example 27, N-(6-(3-(benzyloxy)phenoxy)-1,3-dimethyl-2-oxo-2,3-dihydro-1H-benzo[d]imidazol-5-yl)-2-methoxyethane-1-sulfonamide]
25 | 100 to 1000 nM | Cn1cnc(S(=O)(=O)Nc2cc3c(cc2Oc2cccc(OCc4ccccn4)c2)n(C)c(=O)n3C)c1 [Example 28, N-(1,3-dimethyl-2-oxo-6-(3-(pyridin-2-ylmethoxy)phenoxy)-2,3-dihydro-1H-benzo[d]imidazol-5-yl)-1-methyl-1H-imidazole-4-sulfonamide]
26 | 100 to 1000 nM | COc1ccc(S(=O)(=O)Nc2cc3c(cc2Oc2cccc(OCc4ccccn4)c2)n(C)c(=O)n3C)cc1OC [Example 29, N-(1,3-dimethyl-2-oxo-6-(3-(pyridin-2-ylmethoxy)phenoxy)-2,3-dihydro-1H-benzo[d]imidazol-5-yl)-3,4-dimethoxybenzenesulfonamide]
27 | 100 to 1000 nM | Cn1cnc(S(=O)(=O)Nc2cc3c(cc2Oc2cccc(OCc4ccncc4)c2)n(C)c(=O)n3C)c1 [Example 30, N-(1,3-dimethyl-2-oxo-6-(3-(pyridin-4-ylmethoxy)phenoxy)-2,3-dihydro-1H-benzo[d]imidazol-5-yl)-1-methyl-1H-imidazole-4-sulfonamide]
28 | 100 to 1000 nM | COc1ccc(S(=O)(=O)Nc2cc3c(cc2Oc2cccc(OCc4ccncc4)c2)n(C)c(=O)n3C)cc1OC [Example 31, N-(1,3-dimethyl-2-oxo-6-(3-(pyridin-4-ylmethoxy)phenoxy)-2,3-dihydro-1H-benzo[d]imidazol-5-yl)-3,4-dimethoxybenzenesulfonamide]
29 | > 1000 nM | CC(C)c1cccc(S(=O)(=O)Nc2cc3c(cc2Oc2cccc(OCc4ccccc4)c2)n(C)c(=O)n3C)c1 [Example 32, N-(6-(3-(benzyloxy)phenoxy)-1,3-dimethyl-2-oxo-2,3-dihydro-1H-benzo[d]imidazol-5-yl)-3-isopropylbenzenesulfonamide]
